# Patent publication US8648113B2, “Mixture and compounds from mycelia of Antrodia camphorata and use thereof” (Simpson Biotech Co., Ltd., priority 2004, dated 2014)
# “And” between values parts separate entries of the source, which are not always exact repeats. Identical values can stand only once. Marks after values point to notes of the source that are not given here.
# Legend:
# [1] = tested on: LLC (Lewis lung carcinoma) cell line; assay: Cytotoxic assay, in vitro LLC tumor cell assay (SRB method); conditions: for 50% Growth Inhibition (ED50): SRB method
# [2] = tested on: Wistar derived male or female rats; assay: Cholinergic Agonism, Central/Peripheral in rats (chewing, salivation); format: in vivo, rat; design: key to Peripheral: Salivation: +: exhibiting salivation; conditions: 30 mg/kg IP
# [3] = tested on: Long Evans derived rats, carrageenan-induced paw edema; assay: Inflammation, Carrageenan in rats (hind paw edema); format: in vivo, rat; conditions: 150 mg/kg PO; for Paw Volume Diff: R.P. minus L.P.; for Paw Volume L.P.: left (not injected) hindpaw; for Paw Volume R.P.: right (injected) hindpaw, 3 hours
# Procedure: Hind paw edema, as a measure of inflammation, was recorded 3 hours after carrageenan administration using a plethysmometer with water cell (25 mm diameter). Reduction of hind paw edema by 30 percent or more (30%) indicates significant acute anti-inflammatory activity. […] Reduction of hindpaw edema by 30 percent or more (30%), shown in parenthesis, indicates significant acute anti-inflammatory activity. • 4. […] Anticancer Research 19: 1027-1032, 1999)
# [4] = tested on: ICR derived male mice on high fat diet; assay: Cholesterol, Serum (Total, HDL, Total/HDL Ratio), Diet-Induced in mice; format: in vivo, mouse; conditions: 100 mg/kg × 3 PO
# Procedure: Groups of 5 ICR derived male mice weighing 22±2 g were kept on a high fat diet (g/100 g: coconut oil, 8; cholesterol, 1.0; cholic acid, 0.3; lard 2; standard chow 88.7) for 7 days to induce hypercholesterolemia. Test substance was administered orally on days 5, 6 and 7. After fasting overnight, serum was obtained from each mouse and assayed for total cholesterol (Total), high density lipoprotein (HDL) and percent change in Total/HDL. A decrease of 20 percent or more (20%) in serum Total or increase of 20 percent or more (≧20%) in serum HDL or decrease of 40% or more (≧40%) in the Total/HDL ratio relative to vehicle treated control animals is considered significant.
# Vehicle, test substance or reference positive compound was administered orally (PO) on days 5, 6 and 7 after being fed a high cholesterol diet. Twenty-four hours after the third dose, the overnight-fasted test animals were sacrificed for assessing serum total cholesterol (Total) and high density lipoprotein (HDL). Decrease of 20 percent or more (20%) in serum Total or increase of 20 percent or more (20%) in serum HDL or decrease of 40% or more (40%) in the Total/HDL ratio is considered significant. • 2. Hepatic Injury, D-Galactosamine (Wrobel et al., J. Med. Chem. 41: 1084, 1998)
# [5] = tested on: Wistar derived male rats, D-galactosamine induced hepatic injury; assay: Hepatic Injury, D-Galactosamine in rats; format: in vivo, rat; conditions: 300 mg/kg × 3 PO (Guanine, reference)
# Procedure: Groups of 5 Wistar derived male rats weighing 200±20 g were used. Each animal was treated with a single injection of D-galactosamine (500 mg/kg, IP) Test substance was administered orally at 0.5 hour before and 4 hours as well as 8 hours after D-galactosamine administration and animals were sacrificed 24 hours later. […] Reduction in ALT or AST activity by 30 percent or more (30%), relative to the vehicle treated control animal indicates significant protection.
# Test substance and vehicle were administered orally at 0.5 hour before and 4, 8 hours after a single dose of galactosamine (500 mg/kg, IP). The rats were sacrificed 24 hours after galactosamine injection and the ALT and AST values were determined A reduction of 30% in the ALT and AST relative to the vehicle group is considered significant. • 3. Winter et al., Inflammation, Carrageenan, Proc. Soc.
# [6] = tested on: B16-F0 murine melanoma cells; assay: Tumor, Syngeneic, Melanoma, B16-F0 Cell in C57BL/6J mice; conditions: B16-F0 in C57BL/6J mice, 2 mg/kg × 6 IP; for Survival Time, Days of Post-treatment: monitored to day 45
# [7] = 30-60 min after dosing, individual animals
# [8] = positive in 2 or more of 3 = activity
# [9] = Ave. of 3 rats (Tables 12 and 13: two experiments), 150 mg/kg
# [10] = individual rats (Tables 12 and 13: two experiments), 150 mg/kg
compound,measurement,setting,value
COc1cccc2c1C(=O)c1c(O)c3c(c(O)c1C2=O)C[C@@](O)(C(=O)CO)C[C@@H]3O[C@H]1C[C@H](N)[C@H](O)[C@H](C)O1 [Adriamycin],50% Growth Inhibition (ED50),[1],0.14 mg/L
COC(=O)C1=CCCN(C)C1 [Arecoline-HBR],Central: Chewing,[2]; [7],+ (exhibiting more than 10 seconds of chewing behavior (mouth and/or tongue movements) measured cumulatively)
same,Peripheral: Salivation,[2]; [7],+
same,Central: Score (positive animals of 3),[2]; [8],(3/3)
same,Peripheral: Score (positive animals of 3),[2]; [8],(3/3)
CC(=O)Oc1ccccc1C(=O)O [Aspirin],Paw Volume Diff,[3]; [9],50 ×0.01 ml and 52 ×0.01 ml
same,Paw Volume Diff,[3]; [10],50 ×0.01 ml and 44 ×0.01 ml and 57 ×0.01 ml and 43 ×0.01 ml and 48 ×0.01 ml and 65 ×0.01 ml
same,Paw Volume L.P.,[3]; Ave. of 3 rats (Tables 12 and 13: two experiments),103 ×0.01 ml
same,Paw Volume L.P.,[3]; [10],102 ×0.01 ml and 106 ×0.01 ml and 103 ×0.01 ml and 101 ×0.01 ml and 104 ×0.01 ml
same,Paw Volume R.P.,[3]; [9],154 ×0.01 ml and 155 ×0.01 ml
same,Paw Volume R.P.,[3]; [10],152 ×0.01 ml and 146 ×0.01 ml and 163 ×0.01 ml and 149 ×0.01 ml and 169 ×0.01 ml
CC(C)(Oc1ccc(CCNC(=O)c2ccc(Cl)cc2)cc1)C(=O)O [Benzafibrate],HDL Ave.,[4]; Ave. of 5 mice,113
same,Total (serum total cholesterol) Ave.,[4]; Ave. of 5 mice,228
same,Total/HDL Ave.,[4]; Ave. of 5 mice,2.02
same,HDL Indiv.,"[4]; individual mice, 100 mg/kg",91 and 120 and 133 and 123 and 97
same,Total (serum total cholesterol) Indiv.,"[4]; individual mice, 100 mg/kg",230 and 214 and 225 and 231 and 242
same,Total/HDL Indiv,"[4]; individual mice, 100 mg/kg",2.53 and 1.78 and 1.69 and 1.88 and 2.49
same,HDL % Dce,[4]; relative to vehicle,(43) %
same,Total % Dce,[4]; relative to vehicle,(37) %
same,Total/HDL % Dce,[4]; relative to vehicle,(56) %
"CC(C)=CCOc1ccc(C2=C(CC(C)C)C(=O)NC2=O)cc1 [Compound 2, 3-Isobutyl-4-[4-(3-methyl-2-butenyloxy)phenyl]-1H-pyrrole-2,5-dione]",cytotoxic activity (in words),[1],cytotoxic
same,50% Growth Inhibition (ED50),[1],3.6 mg/L
Nc1nc2nc[nH]c2c(=O)[nH]1 [Guanine],Serum ALT,"[5]; individual rats, 300 mg/kg",508 U/L and 532 U/L and 412 U/L and 436 U/L and 636 U/L
same,Serum AST,"[5]; individual rats, 300 mg/kg",656 U/L and 912 U/L and 776 U/L and 652 U/L and 1028 U/L
same,Serum ALT Dec. %,[5]; relative to vehicle,(34) %
same,Serum AST Dec. %,[5]; relative to vehicle,(33) %
CO[C@@]12[C@H](COC(N)=O)C3=C(C(=O)C(C)=C(N)C3=O)N1C[C@@H]1N[C@@H]12 [Mitomycin],Survival Time T/C (%),[6],125* %
same,"Tumor Weight T/C(%), Day 1",[6],100%
same,"Tumor Weight T/C(%), Day 8",[6],0* %
same,"Tumor Weight T/C(%), Day 11",[6],16* %
same,"Tumor Weight T/C(%), Day 15",[6],27* %
same,"Tumor Weight T/C(%), Day 18",[6],32* %
same,"Tumor Weight T/C(%), Day 22",[6],25* %
same,"Body Weight, Day 1",[6]; Mean ± SEM,21.4 ± 1.1 g
same,"Body Weight, Day 8",[6]; Mean ± SEM,22.2 ± 0.8 g
same,"Body Weight, Day 11",[6]; Mean ± SEM,22.0 ± 1.1 g
same,"Body Weight, Day 15",[6]; Mean ± SEM,23.0 ± 1.0 g
same,"Body Weight, Day 18",[6]; Mean ± SEM,24.0 ± 1.1 g
same,"Body Weight, Day 22",[6]; Mean ± SEM,26.3 ± 1.9 g
same,"Tumor Weight, Day 1",[6]; Mean ± SEM,0 mg
same,"Tumor Weight, Day 8",[6]; Mean ± SEM,0 ± 0 mg
same,"Tumor Weight, Day 11",[6]; Mean ± SEM,34 ± 15 mg
same,"Tumor Weight, Day 15",[6]; Mean ± SEM,119 ± 44 mg
same,"Tumor Weight, Day 18",[6]; Mean ± SEM,391 ± 142 mg
same,"Tumor Weight, Day 22",[6]; Mean ± SEM,587 ± 260 mg
same,"Survival Time, Days of Post-treatment",[6]; Mean ± SEM,34.0 ± 4.7 days
same,"Body Weight, Day 8",[6]; individual mice,20 g
same,"Body Weight, Day 15",[6]; individual mice,20 g
same,"Body Weight, Day 22",[6]; individual mice,30 g
same,"Tumor Weight, Day 1",[6]; individual mice,0 mg
same,"Tumor Weight, Day 8",[6]; individual mice,0 mg
same,"Body Weight, Day 1","[6]; individual mice, 2 mg/kg",25 g and 22 g (2×) and 19 g (2×)
same,"Body Weight, Day 8","[6]; individual mice, 2 mg/kg",25 g and 22 g (2×) and 21 g
same,"Body Weight, Day 11","[6]; individual mice, 2 mg/kg",26 g and 22 g (2×) and 21 g and 19 g
same,"Body Weight, Day 15","[6]; individual mice, 2 mg/kg",25 g (2×) and 21 g and 24 g
same,"Body Weight, Day 18","[6]; individual mice, 2 mg/kg",24 g and 27 g and 22 g and 26 g and 21 g
same,"Body Weight, Day 22","[6]; individual mice, 2 mg/kg",27 g (2×) and 21 g and Died
same,"Tumor Weight, Day 11","[6]; individual mice, 2 mg/kg",0 mg (2×) and 64 mg and 68 mg and 41 mg
same,"Tumor Weight, Day 15","[6]; individual mice, 2 mg/kg",36 mg and 136 mg and 0 mg and 213 mg and 207 mg
same,"Tumor Weight, Day 18","[6]; individual mice, 2 mg/kg",256 mg and 849 mg and 0 mg and 525 mg and 327 mg
same,"Tumor Weight, Day 22","[6]; individual mice, 2 mg/kg",437 mg and 1248 mg and 0 mg and 663 mg and Died
same,"Survival Time, Days of Post-treatment","[6]; individual mice, 2 mg/kg",45^a day (2×) and 28 day and 30 day and 22 day
